Source: patent publication US20040110253A1, “Method for identifying MHC-presented peptide epitopes for T cells” (priority 2002, published 2004)
One block for each substance: values may come before it.

How the values were obtained:
[1] = tested on: YAe-62 TCR; test: Binding of fluorescent soluble YAe-62 αβTCR to SF9 cells displaying IA^b-peptide (flow cytometry); set-up: species or system mouse
Method: (§1) Next fluorescent, soluble αβTCR reagents were prepared for use in flow cytometry to detect insect cells displaying the appropriate MHCII/peptide combination. Fluorescent multivalent versions of the soluble αβTCR's of B3K-06 and YAe-62 bound to insect cells displaying the IA^b-p3K, but not a control MHCII-peptide combination (data not shown).
(§2) Insect cells displaying IA^b-p3K bound the αβTCR reagents very heterogeneously, probably due to heterogeneous expression of IA^b-p3K due to variations in the multiplicity of infection and the lack of synchrony in viral infection and expression. […] In this case, there was a direct correlation between the amount of surface IA^b-p3K expressed by an individual insect cell and the amount of αβTCR bound with cells bearing a particular level of IA^b-p3K binding the αβTCRs uniformly (data not shown). Therefore, comparing the two types of staining gave a useful tool to evaluate the relation between peptide sequence and the strength of αβTCR binding (see below).
(§3) A large number of SF9 insect cells were infected at an MOI of about one with baculovirus carrying the IA^b peptide library. After 3-4 days the cells were analyzed with fluorescent B3K-06 or YAe-62 soluble αβTCR, as described above. Fluorescent cells were sorted and cultured with fresh uninfected SF9 cells to create new infected cells for analysis and an enriched viral stock. This process was repeated 3 to 4 times. In each case, when no clear fluorescent population was apparent, the brightest 1% of the infected cells was sorted. In later rounds, the majority of the cells in a clearly distinguishable fluorescent population were sorted. Infected cells binding the B3K-06 αβTCR were apparent only after two rounds of enrichment but eventually yielded a population with uniform binding (data not shown). Infected cells that bound the YAe-62 αβTCR were detectable even with the initial library of viruses and enriched rapidly to yield a population with more heterogeneous levels of binding to the receptor (data not shown).
(§4) At the time of the final enrichment, single infected cells binding each of αβTCRs were sorted into individual wells of 96 well culture plates containing fresh SF9 cells in order to prepare clonal viral stocks. These stocks were used to infect fresh SF9 cells which were reanalyzed for binding to the appropriate αβTCR as described above. […] The majority of PCR fragments yielded a single unambiguous peptide sequence. These viruses were used to infect SF9 cells that expressed mouse ICAM and B7.1. The infected cells were used as APCs for either the B3K-06 or YAe-62 hybridoma with IL-2 production being a measure of IA^b-peptide recognition. Viruses expressing IA^b-peptide combinations that neither bound to the αβTCR nor stimulated the T cell hybridomas were used as negative controls and virus producing IA^b-p3K was used as the positive control. Results with a few representative virus clones are shown in FIG. 10A and 10B, and a summary of all of the results are shown in Table 1.

[2] = biological target: T1, IA^b (Mus musculus, UniProt P14434+P14483); details: Rees et al., 1999; cited from earlier work
T1 sequence (P14434 24-256): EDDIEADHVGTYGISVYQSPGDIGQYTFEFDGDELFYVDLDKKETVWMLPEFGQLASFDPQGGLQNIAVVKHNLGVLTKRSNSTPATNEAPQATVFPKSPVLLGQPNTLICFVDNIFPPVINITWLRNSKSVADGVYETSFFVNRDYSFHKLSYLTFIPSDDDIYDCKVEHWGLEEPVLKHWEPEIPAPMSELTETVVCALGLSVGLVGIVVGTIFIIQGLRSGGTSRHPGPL
T1 sequence (P14483 28-265): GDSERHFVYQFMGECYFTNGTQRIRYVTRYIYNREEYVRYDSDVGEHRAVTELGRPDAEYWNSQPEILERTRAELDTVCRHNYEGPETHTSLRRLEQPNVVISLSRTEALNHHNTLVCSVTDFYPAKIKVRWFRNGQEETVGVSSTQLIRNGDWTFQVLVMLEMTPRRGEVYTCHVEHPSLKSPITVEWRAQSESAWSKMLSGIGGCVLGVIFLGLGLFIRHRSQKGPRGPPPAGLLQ

[3] = tested on: B3K-06 TCR; test: Binding of fluorescent soluble B3K-06 αβTCR to SF9 cells displaying IA^b-peptide (flow cytometry); set-up: species or system mouse
Method: as §1, §2, §3, §4

[4] = tested on: YAe-62 hybridoma; test: IL-2 production by YAe-62 T cell hybridoma in response to IA^b-peptide presenting APCs; format: cell-based, mouse
From the text: The mouse T cell hybridoma, referred to as YAe-62, was chosen as a representative of broadly reactive T cells present in mice carrying transgenes and gene knockouts that lead to expression of MHC Class II that are almost completely occupied by a single peptide (Ignatowicz et al., 1996, Cell 84:521-529). The T cell was produced by immunization with p3K bound to IA^b in mice that express IA^b covalently linked to Eα, a dominant IA^b binding peptide derived from the MHC Class II IEα chain. YAe-62 responds to IA^b-p3K, but not to APCs lacking MHC Class II or to the IA^b-pEα APCs from the mouse from which it was derived. YAe-62 is also reactive against many cell types bearing IA^b in the absence of p3K. It also responds to APCs from a variety of mice carrying other alleles of IA. The inventors have postulated that this T cell responds mainly to the evolutionarily conserved regions of the IA molecule with less dependence on the peptide than seen with conventional T cells (Marrack et al., 2001, J. Immunol. 167:617-621). […] From the X-ray crystal structure of IA^b (Liu et al., 2002, supra) enough was known about how peptides bind to this MHC molecule to design a strategy in which the major MHC anchor amino acids of the peptide could be held constant and only five surface exposed amino acids need be varied in the library (FIG. 8).
as §4

[5] = tested on: B3K-06 hybridoma; test: IL-2 production by B3K-06 T cell hybridoma in response to IA^b-peptide presenting APCs; format: cell-based, mouse
From the text: The hybridoma, B3K-06 was produced from wild-type C57BL/6 mice immunized conventionally with the peptide (Rees et al., 1999, supra). […] Also, as is commonly seen with conventional T cells, the interaction of the αβ TcR of B3K-06 with IA^b-p3K is very sensitive to changes in any of the peptide amino acids exposed on the surface of the IA^b-p3K complex. Mutation of positions Q2, K3, K5, N7 or K8 to alanine virtually eliminates recognition of p3K by B3K-06 (Liu et al., 2002, supra and additional data not shown).
as §4

[6] = tested on: T cell 3DT-52.5; test: IL-2 production by T cell 3DT-52.5 in response to LKD8 cells plus synthetic peptide; format: cell-based, mouse; details: synthetic peptide 100 ug/ml, D^d expressing Tap deficient cell line, twenty four hours
From the text: FIG. 14B is a graph showing IL-2 produced by T cell […] in response to (1) P815 plus a bound unknown self-peptide and 2) LKD8, alone, or in the presence of the library derived peptide, TGPTRWCRL (SEQ ID NO:50), or a peptide derived from the spin protein, AGATRWCRL (SEQ ID NO:51).
DNA from a number of these clones was sequenced through the region encoding the peptide to determine the peptide sequence. Only one sequence was found, a 9mer, TGPTRWCRL (represented by SEQ ID NO:50; the underlined amino acids are in the positions varied in the library). […] A search of the mouse genome for proteins that contained peptides similar to the library peptide yielded a very similar sequence (AGATRWCRL; SEQ ID NO:51) intheprotein, spin(GenBank Accession No. BC011467). The library peptide and the spin peptide were synthesized and tested with a D^d expressing, Tap deficient, cell line for recognition by the original T cell (FIG. 14B). […] In the case of LKD8 the cell line was tested alone or in the presence of 100 ug/ml of the library derived peptide, TGPTRWCRL (SEQ ID NO:50), or a peptide derived from the spin protein, AGATRWCRL (SEQ ID NO:51). After twenty four hours the culture supernatants were assayed for IL-2. Without an added peptide, the D^d on this cell line was not recognized because the Tap deficiency prevents loading of endogenous peptides.

[7] = tested on: T cell 3DT-52.5; test: IL-2 production by T cell 3DT-52.5 in response to infected SF9 cells expressing D^d tethered to peptide; format: cell-based, mouse; details: infected insect cells expressing D^d bearing the peptide as APCs
From the text: FIG. 14A is a graph showing IL-2 produced by T cell 3DT-52.5 in response to ICAM+/B7+ SF9 cells infected with baculovirus expressing D^d tethered to either pHIV or the αβTCR identified peptide, TGPTRWCRL (SEQ ID NO:50).
To screen the library, soluble a αβTCR were produced from a mouse T cell specific for D^d plus an unknown self-peptide (Endres et al., 1983, J Immunol 131:1656-1662). A multimeric, fluorescent version of the αβTCR was produced as described for MHCII specific αβTCRs. SF9 cells, infected with the library at a multiplicity of infection (MOI) of <1, were analyzed for binding of the fluorescent αβTCR (data not shown). Although no clearly fluorescent population of cells was seen, of those with good surface D^d expression, the 1% of the cells with the brightest fluorescence were sorted and cultured with fresh insect cells to expand the virus. This type of enrichment was repeated six times, producing a clear population of infected cells was detected that bound the αβTCR (data not shown). The infected cells were cloned with fresh insect cells to prepare clonal viral stocks. These stocks were re-tested for encoding a D^d-peptide combination that bound the αβTCR.
DNA from a number of these clones was sequenced through the region encoding the peptide to determine the peptide sequence. […]

[8] = biological target: IA^b-pEα displayed on baculovirus-infected SF9 insect cells (mouse; baculovirus); test: flow cytometry, fluorescent multivalent soluble TCR on infected SF9 cells
[9] = biological target: IA^b-p3K displayed on baculovirus-infected SF9 insect cells (mouse; baculovirus); test: as above
[10] = biological target: IA^b-… displayed on baculovirus-infected SF9 insect cells (mouse; baculovirus); test: as above
[11] = biological target: IA^b-… (SEQ ID NO:25) displayed on baculovirus-infected SF9 insect cells (mouse; baculovirus); test: as above
[12] = biological target: IA^b-… (SEQ ID NO:26) displayed on baculovirus-infected SF9 insect cells (mouse; baculovirus); test: as above
[13] = IA^b-peptide displayed on baculovirus-infected SF9 cells, fluorescent soluble αβTCR
[14] = insect cells displaying IA^b-peptide

Substance: F E A Q K A K A N K A V (FEAQKAKANKAV; synthetic peptide motif) [p3K, positive control]
YAe-62 TCR Binding (% of p3K) [1, 13]: 100.0 % of p3K
binding of YAe-62 αβTCR to IA^b-peptide complex (in words) [1, 14]: bound
binding of peptide to IA^b [2]: binds well
B3K-06 TCR Binding (% of p3K) [3, 13]: 100.0 % of p3K
binding of B3K-06 αβTCR to IA^b-peptide complex (in words) [3, 14]: bound
response of YAe-62 to IA^b-peptide APCs ([4]; APCs bearing IA^b-peptide): responds
IL-2 Production (units/ml) ([4]; YAe-62 hybridoma, infected SF9 cells expressing mouse ICAM and B7.1 as APCs): 205 units/ml
IL-2 Production (units/ml) ([5]; B3K-06 hybridoma, infected SF9 cells expressing mouse ICAM and B7.1 as APCs): 3500 units/ml
response of B3K-06 to IA^b-expressing APCs plus peptide ([5]; IA^b-expressing APCs, data not shown): responds to IA^b-expressing APCs in the presence, but not in the absence of the peptide

Substance: TGPTRWCRL (synthetic peptide motif) [9mer D^d library derived peptide identified with the αβTCR of 3DT-52.5]
restoration of the ability of LKD8 cells to stimulate the T cells (IL-2) [6]: restored the ability of the cells to stimulate the T cells
stimulation of IL-2 production from the original T cell donor of the αβTCR [7]: specifically stimulated IL-2 production

TCR Binding (% of p3K) [8]: 0.4 % of p3K
TCR Binding (% of p3K) [9]: 100 % of p3K
TCR Binding (% of p3K) [10]: 66.8 % of p3K
Substance: soluble αβTCR of B3K-06, fluorescent multivalent version

TCR Binding (% of p3K) [8]: 0.3 % of p3K
TCR Binding (% of p3K) [9]: 100 % of p3K
TCR Binding (% of p3K) [11]: 58.3 % of p3K
TCR Binding (% of p3K) [12]: 54.9 % of p3K
Substance: soluble αβTCR of YAe-62, fluorescent multivalent version
